{"source": "paper PMC12682947", "about": "“Identification of New KCNT1‐Epilepsy Drugs by In Silico, Cell, and Drosophila Modeling” (Annals of Neurology, 2025)", "key": {"[1]": {"assay": "Plasma pharmacokinetics and brain uptake of antrafenine in mice (LC-MS)", "type": "in vivo, male C57BL/6 mice", "conditions": "male, C57BL/6, mouse; for Kp at 1 h / concentration at 1 h / Kp at 4 h / concentration at 4 h / concentration at 0.25 h / concentration at 24 h / half-life: iv; for AUC(0-inf): read-out: Plasma AUC0-inf; for clearance: read-out: Plasma CL; for Vd: read-out: Plasma VSS", "procedure": "Plasma pharmacokinetics and brain uptake of antrafenine was analyzed in male C57BL/6 mice. Antrafenine was administered intravenously at 1 mg/kg and 3 mg/kg into the tail vein and plasma was collected over a 24‐hour sampling period (n = 3 mice/time point). Following administration, the brain was harvested at 4 times over 24 hours and snap frozen in dry ice and subsequently stored frozen (−80°C) until analysis. The concentration of antrafenine was determined using liquid chromatography–mass spectrometry. The in vivo study was conducted using established procedures in accordance with the Australian Code of Practice for the Care and Use of Animals for Scientific Purposes, and the study protocols were reviewed and approved by the Monash Institute of Pharmaceutical Sciences Animal Ethics Committee. See Supporting Information for detailed methods and results. […]\nPlasma pharmacokinetics and brain uptake of antrafenine was analyzed in male C57BL/6 mice by the Monash University Centre for Drug Candidate Optimisation. Antrafenine was administered intravenously at 1 mg/kg and 3 mg/kg into the tail vein and plasma was collected over a 24 h sampling period (n=3 mice/time point). Following administration, brain was harvested at four times over 24 hours and snap frozen in dry ice and subsequently stored frozen (-80°C) until analysis. The concentration of antrafenine was determined using liquid chromatography–mass spectrometry (LC-MS).\n4 hrs post IV administration of 3 mg/kg Antrafenine was taken as a representative time to compare plasma and brain concentrations. At 4 hrs we determined a mean plasma concentration of 47.5 nM (+5.9 nM SD) and a mean brain concentration of 13.9 nM (+3 nM SD). […]\nPlasma pharmacokinetics and brain uptake of antrafenine\nThe systemic exposure of antrafenine was studied in non-fasted male C57BL/6 mice weighing 19.8 – 24.6 g. Mice had access to food and water ad libitum throughout the pre- and post-dose period. Antrafenine hydrochloride Mw 588.554 (Lot#10-KSS-51-2) was obtained from Toronto Research Chemicals/LGC Standards, Canada, and was dissolved in vehicle; 5% (v/v) DMSO, 25% (v/v) 40% (w/v) Trappsol in 0.9% (w/v) saline, 70% (v/v) 40 mM citrate buffered saline at pH 3.5 at concentrations of 0.5 mg/mL and 1.5 mg/mL.\nOn the day of dosing, each formulation was prepared by dissolving solid antrafenine in DMSO using vortexing and sonication prior to addition of 40% (w/v) Trappsol in 0.9% (w/v) saline followed by 40 mM citrate-buffered saline at pH 3.5. Each sample was vortexed to create a colorless / light yellow solution and was filtered through a 0.22 µm syringe filter prior to dosing.\nAdministration of antrafenine was performed by a single bolus IV injection into the tail vein of C57BL/6 male mice using a 1ml syringe with a 25G x 1” needle at a volume of 2 mL/kg. Each […]\nformulation was dosed to mice by bolus injection into the lateral tail vein (2 mL/kg) and blood samples were collected at 1, 2, 5, 15 and 30 min; 1, 2, 4, 7.5 and 24 h post-dose (n=3 mice per time point for each formulation). A maximum of three blood samples were obtained from each mouse, with plasma samples being taken via submandibular bleed (approximately 120 μL).\nBlood was collected into polypropylene Eppendorf tubes containing heparin as anticoagulant and stabilization cocktail (Complete® (containing a protease inhibitor cocktail and EDTA) and potassium fluoride) to minimize the potential for ex vivo compound degradation in blood/plasma samples. Once collected, blood samples were centrifuged immediately, supernatant plasma was removed, snap frozen in dry ice and stored at -80°C until analysis by LC-MS. In addition, at the 15 min, 1, 4 and 24 h post-dose time points, the whole brain was rapidly removed from the carcass soon after the blood collection. The whole brains were blotted to remove excess blood, placed into pre-weighed polypropylene vials and weighed. The brains were snap frozen in dry […]"}, "[2]": {"conditions": "cited from earlier work"}, "[3]": {"conditions": "plasma, 1 mg/kg, IV 1 mg/kg, individual mice, read-out: Plasma Concentration Individual"}, "[4]": {"conditions": "plasma, 1 mg/kg, IV 1 mg/kg, n = 3, read-out: Plasma Concentration Mean ± SD"}, "[5]": {"conditions": "plasma, 3 mg/kg, IV 3 mg/kg, individual mice, read-out: Plasma Concentration Individual"}, "[6]": {"conditions": "plasma, 3 mg/kg, IV 3 mg/kg, n = 3, read-out: Plasma Concentration Mean ± SD"}, "[7]": {"conditions": "plasma, IV administration at 1mg/kg"}, "[8]": {"conditions": "plasma, IV administration at 3mg/kg"}}, "note": "Where two headings read alike, the source gives them in different places."}
{"smiles": "O=C(OCCN1CCN(c2cccc(C(F)(F)F)c2)CC1)c1ccccc1Nc1ccnc2cc(C(F)(F)F)ccc12", "note": "[antrafenine]", "values": [{"measurement": "Kp at 1 h", "setting": "[1]; brain, 3 mg/kg, IV 3 mg/kg, individual mice, read-out: B:P ratio Individual", "value": 0.14}, {"measurement": "Kp at 1 h", "setting": "[1]; brain, 3 mg/kg, IV 3 mg/kg, n = 3, read-out: B:P ratio Mean ± SD", "value": 0.11}, {"measurement": "concentration at 1 h", "setting": "[1]; brain, 3 mg/kg, IV 3 mg/kg, n = 3, read-out: Brain Parenchyma Concentration Mean ± SD", "value": 31.4, "unit": "nM"}, {"measurement": "Kp at 4 h", "setting": "[1]; brain, 3 mg/kg, IV 3 mg/kg, 4 h, individual mice, read-out: B:P ratio Individual", "value": 0.32}, {"measurement": "Kp at 4 h", "setting": "[1]; brain, 3 mg/kg, IV 3 mg/kg, 4 h, n = 3, read-out: B:P ratio Mean ± SD", "value": 0.29}, {"measurement": "Kp at 4 h", "setting": "[1]; brain, 3 mg/kg, IV 3 mg/kg, 4 hours after administration, read-out: concentration in the brain as percentage of that present in plasma", "value": "~0.3"}, {"measurement": "concentration at 4 h", "setting": "[1]; brain, 3 mg/kg, IV 3 mg/kg, 4 hours after administration, read-out: mean brain concentration", "value": 13.9, "unit": "nM"}, {"measurement": "concentration at 0.25 h", "setting": "[1]; [3]", "value": 313, "unit": "nM"}, {"measurement": "concentration at 0.25 h", "setting": "[1]; [4]", "value": 297, "unit": "nM"}, {"measurement": "concentration at 1 h", "setting": "[1]; [3]", "value": 122, "unit": "nM"}, {"measurement": "concentration at 1 h", "setting": "[1]; [4]", "value": 113, "unit": "nM"}, {"measurement": "concentration at 4 h", "setting": "[1]; plasma, 1 mg/kg, IV 1 mg/kg, 4 h, individual mice, read-out: Plasma Concentration Individual", "value": 12.5, "unit": "nM"}, {"measurement": "concentration at 4 h", "setting": "[1]; plasma, 1 mg/kg, IV 1 mg/kg, 4 h, n = 3, read-out: Plasma Concentration Mean ± SD", "value": 13.1, "unit": "nM"}, {"measurement": "concentration at 24 h", "setting": "[1]; [3]", "value": 2, "unit": "nM"}, {"measurement": "concentration at 24 h", "setting": "[1]; [4]", "value": 1.8, "unit": "nM"}, {"measurement": "half-life", "setting": "[1]; plasma, 1 mg/kg, plasma, IV administration at 1mg/kg, read-out: Apparent t1/2 (converted)", "value": 7.3, "unit": "h"}, {"measurement": "concentration at 0.25 h", "setting": "[1]; [5]", "value": 738, "unit": "nM"}, {"measurement": "concentration at 0.25 h", "setting": "[1]; [6]", "value": 697, "unit": "nM"}, {"measurement": "concentration at 1 h", "setting": "[1]; [5]", "value": 282, "unit": "nM"}, {"measurement": "concentration at 1 h", "setting": "[1]; [6]", "value": 280, "unit": "nM"}, {"measurement": "concentration at 4 h", "setting": "[1]; plasma, 3 mg/kg, IV 3 mg/kg, 4 h, individual mice, read-out: Plasma Concentration Individual", "value": 53, "unit": "nM"}, {"measurement": "concentration at 4 h", "setting": "[1]; plasma, 3 mg/kg, IV 3 mg/kg, 4 h, n = 3, read-out: Plasma Concentration Mean ± SD", "value": 47.5, "unit": "nM"}, {"measurement": "concentration at 4 h", "setting": "[1]; plasma, 3 mg/kg, IV 3 mg/kg, 4 hours after administration, read-out: mean plasma concentration", "value": 47.5, "unit": "nM"}, {"measurement": "concentration at 24 h", "setting": "[1]; [5]", "value": 5.7, "unit": "nM"}, {"measurement": "concentration at 24 h", "setting": "[1]; [6]", "value": 6.5, "unit": "nM"}, {"measurement": "half-life", "setting": "[1]; plasma, 3 mg/kg, plasma, IV administration at 3mg/kg, read-out: Apparent t1/2 (converted)", "value": 7.4, "unit": "h"}, {"measurement": "half-life", "setting": "[1]; plasma, 3 mg/kg, plasma, IV at 1 and 3 mg/kg, each profile, read-out: apparent terminal half-life (converted)", "value": "~7", "unit": "h"}, {"measurement": "AUC(0-inf)", "setting": "[1]; [7]", "value": 1.29, "unit": "µM·h"}, {"measurement": "clearance", "setting": "[1]; [7]", "value": 22, "unit": "mL/min/kg"}, {"measurement": "Vd", "setting": "[1]; [7]", "value": 2.3, "unit": "L/kg"}, {"measurement": "AUC(0-inf)", "setting": "[1]; [8]", "value": 3.14, "unit": "µM·h"}, {"measurement": "clearance", "setting": "[1]; [8]", "value": 27.1, "unit": "mL/min/kg"}, {"measurement": "Vd", "setting": "[1]; [8]", "value": 3.9, "unit": "L/kg"}, {"measurement": "mean plasma concentration", "setting": "[2]; 900 mg/day (approximately 12 mg/kg for a 75 kg adult), ref Berry et al, 1983", "value": 202, "unit": "nM"}, {"measurement": "tolerability in humans", "setting": "[2]; 900 mg/day", "value": "well tolerated"}, {"measurement": "mean circulating plasma levels", "setting": "[2]; patients with osteoarthritis", "value": 0.3, "unit": "µM"}]}
